Assay results taken from patent US20220030868A1, “FUNGICIDAL HALOMETHYL KETONES AND HYDRATES” (FMC CORPORATION, priority 2018, published 2022).

Experiments:
Phakopsora pachyrhizi = assay: Test A: test suspension sprayed on soybean seedlings one day before inoculation with Phakopsora pachyrhizi spores (Asian soybean rust), visual disease rating; format: in vivo; conditions: 100 = 100% disease control, 0 = no control
Summary of the method: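 Soybean seedlings were sprayed to run-off with test suspension (acetone 3% of volume, acetone/water 50/50, 250 ppm PEG400) and inoculated with rust spores one day later. Incubation: 24 h saturated atmosphere at 22° C, then 8 days growth chamber at 22° C; scores 0–100 relative to untreated controls.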

[1] = system: Puccinia recondita f. sp. tritici; assay: Test B: test suspension sprayed on wheat seedlings one day before inoculation with Puccinia recondita f. sp. tritici spores (wheat leaf rust), disease rating; format: in vivo; conditions: 100 = 100% disease control, 0 = no control
Summary of the method: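 Wheat seedlings were sprayed to run-off with compound suspended in 50/50 acetone/water containing 250 ppm PEG400, then inoculated with P. recondita f. sp. tritici spores the next day. Plants were held 24 h in saturated air at 20 °C, then 6 days in a growth chamber at 20 °C. Disease control was rated 0–100% relative to controls, with some entries run at 50 or 10 ppm.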

[2] = Phakopsora pachyrhizi, 10 ppm test suspension

| SMILES | Test A rating (disease control) (Phakopsora pachyrhizi; 10 ppm test suspension) [%] | Test B rating (disease control) ([1]; 10 ppm test suspension) [%] | other results |
| --- | --- | --- | --- |
| CCOC(=O)C1CCN(Cc2ccc(O/C=C(\OCC)C(F)(F)F)cc2)CC1 [compound 268] | 99 | 0 |  |
| CCOC(=O)c1ccnn1Cc1ccc(O/C=C(\OCC)C(F)(F)F)cc1 [compound 241] | 0 | 0 |  |
| CCO/C(=C\Oc1ccc(CC#N)cc1)C(F)(F)F [compound 154] | 0 | 0 |  |
| CCO/C(=C\Oc1ccc(C(=O)NC2CC2)cc1)C(F)(F)F [compound 100] | 0 | 0 |  |
| CCO/C(=C\Oc1ccc(Cn2ccc(C(F)(F)F)n2)cc1)C(F)(F)F [compound 181] | 0 | 0 |  |
| CCOC(=O)c1cnn(Cc2cccc(O/C=C(\OCC)C(F)(F)F)c2C)c1 [compound 303] |  |  | pest or weed control at 50 ppm (Phakopsora pachyrhizi; Phakopsora pachyrhizi, 50 ppm test suspension): 0%; pest or weed control at 50 ppm ([1]; 50 ppm test suspension): 0% |
| CCO/C(=C\Oc1ccc(CNC(=O)C(C)OC)cc1)C(F)(F)F (centres unmarked) [compound 114] |  |  | Test A rating (disease control) (Phakopsora pachyrhizi; 50 ppm test suspension): 44%; Test B rating (disease control) ([1]; 50 ppm test suspension): 0% |
| CCO/C(=C\Oc1ccc(Cn2cncn2)cc1)C(F)(F)F [Compound 157] | 0 | 9 |  |
| O=C(OCC1CCC1)c1cnn(Cc2ccc(OCC3(C(F)(F)F)OCCO3)cc2)c1 [compound 249] | 100 | 0 |  |
| O=C(OCc1ccccn1)c1cnn(Cc2ccc(OCC3(C(F)(F)F)OCCO3)cc2)c1 [compound 199] | 100 | 0 |  |
| C#CCNC(=O)c1ccc(O/C=C(\OCC)C(F)(F)F)cc1 [compound 102] | 0 | 0 |  |
| CCO/C(=C\Oc1ccc(Cn2cnc(C#N)n2)cc1)C(F)(F)F [Compound 82] | 97 | 0 |  |
| CCO/C(=C\Oc1ccc(CNC(=O)CC)cc1)C(F)(F)F [compound 150] | 33 | 0 |  |
| C=CCOC(=O)c1ccn(Cc2ccc(O/C=C(\OCC)C(F)(F)F)cc2)n1 [compound 291] | 100 | 0 |  |
| CC(C)COC(=O)NCc1ccc(OCC2(C(F)(F)F)OCCO2)cc1 [compound 112] | 0 | 0 |  |
| CCOC(=O)c1cnn(Cc2ccc(O/C=C(\OCC)C(F)(F)F)cc2)n1 [compound 119] | 97 | 0 |  |
| CON(Cc1ccc(OCC2(C(F)(F)F)OCCO2)cc1)C(=O)C1CC1 [compound 236] | 75 | 0 |  |
| CCO/C(=C\Oc1ccc(Cc2nc(C(=O)NCC3CC3)cs2)cc1)C(F)(F)F [compound 130] | 100 | 0 |  |
| O=C(NCC(F)(F)F)c1cnn(Cc2ccc(OCC3(C(F)(F)F)OCCO3)cc2)c1 [compound 197] | 0 | 0 |  |
| CCOC(=O)c1ccn(Cc2ccc(O/C=C(\OCC)C(F)(F)F)cc2)n1 [Compound 231, ethyl 1-[[4-[[(1Z)-2-ethoxy-3,3,3-trifluoro-1-propen-1-yl]oxy]phenyl]methyl]-1H-pyrazole-3-carboxylate] |  |  | pest or weed control at 10 ppm (Phakopsora pachyrhizi; [2]): 100%; pest or weed control at 10 ppm ([1]; 10 ppm test suspension): 0% |
| COC(=O)c1ccc(OCC2(C(F)(F)F)OCCO2)cc1 [compound 189] | 0 | 0 |  |
| CCO/C(=C\Oc1ccc(Cn2ccc(C(=O)OCC(C)=O)n2)cc1)C(F)(F)F [compound 359] | 100 | 0 |  |
| CCO/C(=C\Oc1ccc(C(=O)OC(C)C)cc1)C(F)(F)F [compound 73] | 0 | 0 |  |
| CCOC(=O)c1ccn(Cc2ccc(OCC3(C(F)(F)F)OCCO3)cc2)n1 [compound 232] | 98 | 0 |  |
| CCO/C(=C\Oc1ccc(Cn2cc(Br)cn2)cc1)C(F)(F)F [compound 183] | 0 | 0 |  |
| O=C(c1csc(Cc2ccc(OCC(O)(O)C(F)(F)F)cc2)n1)N1CCC1 [Compound 215] | 80 | 55 |  |
| CCO/C(=C\Oc1ccc(Cn2cc(C(=O)OC)c3ccccc32)cc1)C(F)(F)F [compound 91] | 0 | 0 |  |
| O=C(NCC(F)(F)F)c1cnc(Cc2ccc(OCC(O)(O)C(F)(F)F)cc2)s1 [Compound 277] | 50 | 45 |  |

| SMILES | Test A rating (disease control) (Phakopsora pachyrhizi; 10 ppm test suspension) [%] | Test B rating (disease control) ([1]; 10 ppm test suspension) [%] | other results |
| --- | --- | --- | --- |
| CS(=O)(=O)c1ccc(OCC(O)(O)C(F)(F)F)cc1 [Compound 31] | 44 | 93 |  |
| CCO/C(=C\Oc1ccc([N+](=O)[O-])cc1)C(F)(F)F [compound 279] |  |  | Test A rating (disease control) (Phakopsora pachyrhizi; 50 ppm test suspension): 0%; Test B rating (disease control) ([1]; 50 ppm test suspension): 0% |
| COC(=O)c1cnn(Cc2ccc(OCC3(C(F)(F)F)OCCO3)cc2)c1 [compound 13] | 99 | 0 |  |
| CCOC(=O)c1ccc2c(cnn2Cc2ccc(OCC3(C(F)(F)F)OCCO3)cc2)c1 [compound 160] | 13 | 0 |  |
| CCOC(=O)c1cnn(C(C)c2cccc(O/C=C(\OCC)C(F)(F)F)c2)c1 (centres unmarked) [compound 304] |  |  | Test A rating (disease control) (Phakopsora pachyrhizi; 50 ppm test suspension): 96%; Test B rating (disease control) ([1]; 50 ppm test suspension): 0% |
| CCO/C(=C\Oc1ccc(Cn2cnc(SC)n2)cc1)C(F)(F)F [Compound 261] | 0 | 0 |  |
| CN(C)C(=O)C1=NOC(c2ccc(OCC3(C(F)(F)F)OCCO3)cc2)C1 (centres unmarked) [compound 22] | 38 | 0 |  |
| CC#CCOC(=O)c1ccn(Cc2ccc(O/C=C(\OCC)C(F)(F)F)cc2)n1 [compound 293] | 100 | 0 |  |
| CCO/C(=C\Oc1ccc(Cn2cc(C(=O)NC(C)C)cn2)cc1)C(F)(F)F [compound 118] | 0 | 0 |  |
| O=Cc1cccc(OCC(O)(O)C(F)(F)F)c1 [compound 305] |  |  | pest or weed control at 10 ppm (Phakopsora pachyrhizi; [2]): 70%; pest or weed control at 10 ppm ([1]; 10 ppm test suspension): 0% |
| C#CCOC(=O)c1cnn(Cc2cccc(O/C=C(\OCC)C(F)(F)F)c2)c1 [compound 336] | 100 | 0 |  |
| CCOC(=O)c1cnn(Cc2ccc(CO/C=C(\OCC)C(F)(F)F)cc2)c1 [compound 167] | 38 | 0 |  |
| O=C(OCC(F)(F)F)c1cnn(Cc2ccc(OCC(O)(O)C(F)(F)F)cc2)c1 [Compound 45] | 87 | 85 |  |
| CCOC(=O)c1cnn(Cc2ccc(COCC3(C(F)(F)F)OCCO3)cc2)c1 [compound 141] | 0 | 0 |  |
| C=CC(F)(F)OC(=O)c1cnn(Cc2ccc(OCC(O)(O)C(F)(F)F)cc2)c1 [Compound 38] | 97 | 89 |  |
| CCO/C(=C\Oc1ccc(Cn2cc(C(=O)NCC#N)cn2)cc1)C(F)(F)F [compound 107] | 0 | 0 |  |
| CCO/C(=C\Oc1ccc(C(=O)O)cc1)C(F)(F)F [compound 72] |  |  | Test A rating (disease control) (Phakopsora pachyrhizi; 50 ppm test suspension): 13%; Test B rating (disease control) ([1]; 50 ppm test suspension): 0% |
| N#Cc1ccc(OCC(O)(O)C(F)(F)F)cc1 [Compound 142] | 92 | 100 |  |
| COC(=O)NN=Cc1ccc(OCC(O)(O)C(F)(F)F)cc1 [Compound 33] | 96 | 86 |  |
| CCOC(=O)c1cnnn1Cc1ccc(O/C=C(\OCC)C(F)(F)F)cc1 [compound 120] | 0 | 0 |  |
| CN(C)C(=O)c1cnn(Cc2ccc(OCC3(C(F)(F)F)OCCO3)cc2)c1 [compound 198] | 0 | 0 |  |
| CCCOC(=O)c1cnn(Cc2cccc(O/C=C(\OCC)C(F)(F)F)c2)c1 [Compound 331, propyl 1-[[3-[[(1Z)-2-ethoxy-3,3,3-trifluoro-1-propen-1-yl]oxy]phenyl]methyl]-1H-pyrazole-4-carboxylate] |  |  | pest or weed control at 10 ppm (Phakopsora pachyrhizi; [2]): 100%; pest or weed control at 10 ppm ([1]; 10 ppm test suspension): 0% |
| C=CCOC(=O)c1cnn(Cc2cccc(O/C=C(\OCC)C(F)(F)F)c2)c1 [compound 333] | 100 | 0 |  |
| CN(C)S(=O)(=O)c1ccc(OCC2(C(F)(F)F)OCCO2)cc1 [compound 25] | 0 | 0 |  |
| C=C(C)COC(=O)c1cnn(Cc2cccc(O/C=C(\OCC)C(F)(F)F)c2)c1 [compound 335] | 100 | 0 |  |
| CCNC(=O)OCc1ccc(O/C=C(\OCC)C(F)(F)F)cc1 [compound 196] | 0 | 74 |  |
| CCO/C(=C\Oc1ccc(CS(=O)(=O)CC)cc1)C(F)(F)F [compound 62] | 0 | 0 |  |
